81 molecules from the METLIN SMRT retention time set (Domingo-Almenara et al. 2019) can be followed below.

This data set is described as follows: gradient 5% acetonitrile 3 min, to 50% in 2 min, to 85% in 15 min, held 3 min, 100 µL/min. The settings on record: column: Zorbax Extend-C18 2.1 x 50 mm; eluents: water / acetonitrile, 0.1% formic acid. An outline of the steps:
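Using water and acetonitrile that each contained 0.1% formic acid, mixtures of ~100 pure standards were separated at 100 μL/min on a Zorbax Extend-C18 column (2.1 × 50 mm, 1.8 μm). The HPLC fed a quadrupole time-of-flight mass spectrometer working in positive and negative ionization mode, with dead and dwell volumes of 40 μL and 900 μL. Data were acquired over 3 months. Retention time was read from computationally picked adduct peaks after manual inspection of each.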
For `O=C(Cc1nnc(-c2ccccc2)o1)NC1CCCCC1`, the RP-LC retention time stood at 787 s.

In turn, `O=C(Cc1csc(-c2ccccc2F)n1)NCCc1c[nH]c2ccc(F)cc12` showed an RP-LC retention time of 908 s.

Molecule `Cc1ccc(-c2nnc(N3CCC(C(=O)NC(C)c4ccc(F)cc4)CC3)o2)cc1` (stereo unspecified) displayed an RP-LC retention time of 892 s.

In the case of `c1ccc(-c2nnc3oc(-c4cccs4)nn23)cc1`, the RP-LC retention time was 911 s.

Turning to `COc1ccccc1NC(=O)N1CCC2(CC1)NC(=O)c1cccc(Cl)c1N2`, the RP-LC retention time is 754 s.

On to `O=C(Nc1cc(F)ccc1Cl)c1ccc2c(c1)nnn2CCN1CCOCC1`, for which the RP-LC retention time came to 633 s.

`O=C(c1ccc2c(c1)OCO2)N(CCc1cscn1)Cc1cccnc1` had an RP-LC retention time of 602 s.

For `O=C(NCC1CCN(C(=O)c2cc3ccccc3o2)CC1)c1cc(Cl)ccc1Cl`, the RP-LC retention time is 841 s.

In turn, `COc1ccccc1NC(=O)N(C)CCc1noc(COc2ccc(F)cc2)n1` showed an RP-LC retention time of 907 s.

In turn, `FC(F)(F)c1cccc(-c2ccc(CNCC3CCCO3)o2)c1` (stereo unspecified) came in with an RP-LC retention time of 703 s.

On to `CCc1cccc(C)c1Nc1c(-c2ccc(C(=O)OC)cc2)nc2cnccn12`, for which the RP-LC retention time came out at 982 s.

`CCN(CC)C(=O)N1CC(Cn2c(C)cnc2-c2ccncc2)C1` showed an RP-LC retention time of 568 s.

In turn, `Cc1cccc(NC(=O)C2CCN(c3nnc4cccc(C)n34)CC2)c1` had an RP-LC retention time of 706 s.

Regarding `Cc1ncc([N+](=O)[O-])n1CC(C)O` (stereo unspecified), the RP-LC retention time was 609 s.

Consider `COc1ccccc1NC(=O)Cn1nc2c(Oc3cccc(Cl)c3)nccn2c1=O`, for which the RP-LC retention time was determined as 900 s.

For the molecule `O=C(Nc1ccc(Br)cc1)C1CCCN(c2ncc(-c3cccc(F)c3)cn2)C1` (stereo unspecified), the RP-LC retention time was 1230 s.

In the case of `COCc1nncn1C1CCN(S(=O)(=O)c2ccccc2C(F)(F)F)CC1`, the RP-LC retention time stood at 725 s.

The molecule `Cc1oc(-c2[nH]ncc2C(=O)N2CCCC2)cc1S(=O)(=O)N1CCN(CC(C)C)CC1` yielded an RP-LC retention time of 580 s.

With `COc1ccc(C(=O)N2CCCn3nc(-c4cccs4)cc3C2)cn1`, the RP-LC retention time was found to be 766 s.

Consider `CCCCOC(=O)c1ccc(NC(=O)c2c(OC)cc(=O)n3c2CCCC3)cc1`, for which the RP-LC retention time came to 857 s.

As for `CC1CCN(C(=O)c2cc3c(s2)CCC(C(=O)N2CCCC2)C3)CC1` (stereo unspecified), the RP-LC retention time turned out to be 849 s.

In the case of `CC12CCC(C(=O)NCc3ccccc3)(OC1=O)C2(C)C` (stereo unspecified), the RP-LC retention time came out at 768 s.

In the case of `COc1cccc2sc(N(CCCN(C)C)C(=O)c3cccc(C(F)(F)F)c3)nc12`, the RP-LC retention time worked out at 622 s.

`Cc1noc(C)c1Cc1c(C(=O)NCCn2c(C)cnc2C)noc1C` had an RP-LC retention time of 601 s.

In the case of `Fc1cccc(-c2nc3ncccn3c2NCc2ccc(Cl)cc2)c1`, the RP-LC retention time came to 834 s.

Molecule `CCc1ccc2c(c1)c(=O)c(C(=O)c1ccccc1)cn2CC(=O)Nc1cccc(Cl)c1` showed an RP-LC retention time of 892 s.

`COC(=O)c1ccc(NC(=O)C(=O)NCC2CCN(S(C)(=O)=O)CC2)cc1` had an RP-LC retention time of 828 s.

Molecule `Cc1ccc(-n2nc3c(=O)n(CCCC(=O)NCc4ccc(C)o4)nc(C)c3c2C)cc1` showed an RP-LC retention time of 817 s.

Consider `Cc1noc(C)c1-c1ccc(S(=O)(=O)N2CCCc3ccccc32)cc1`, for which the RP-LC retention time stood at 1060 s.

In turn, `CCn1nccc1-c1cccc(-c2noc(-c3cccnc3Cl)n2)c1` yielded an RP-LC retention time of 1040 s.

`COc1ccc(CC(=O)NC2CCN(c3cc(-c4ccccc4)[nH]n3)C2)cc1OC` (stereo unspecified) had an RP-LC retention time of 659 s.

For the molecule `C=CCN1C(=O)COc2ccc(-c3csc(NC(=O)c4ccc(F)cc4)n3)cc21`, the RP-LC retention time came to 1010 s.

In turn, `CCOCCCNC(=O)C1CCCN(S(=O)(=O)c2ccc(OC)c(C)c2)C1` (stereo unspecified) yielded an RP-LC retention time of 813 s.

Turning to `O=C(CN1C(=O)C(C(=O)N2CCCC2)Sc2ccccc21)N1CCN(Cc2ccccc2)CC1` (stereo unspecified), the RP-LC retention time came out at 625 s.

In turn, `CCN(C(=O)Cn1c(C(C)C)nc2c(c1=O)CN(Cc1ccccc1)CC2)c1ccccc1` gave an RP-LC retention time of 757 s.

With `COc1ccc(CN2C=C(C(=O)OCc3noc(-c4ccccc4)n3)C(C)=NS2(=O)=O)cc1`, the RP-LC retention time stood at 1100 s.

For the molecule `COc1cccc(-c2cc3n(n2)CCCN(C(=O)Cc2ccsc2)C3)c1`, the RP-LC retention time worked out at 587 s.

Take `O=C(Nc1ccc2c(c1)N(S(=O)(=O)c1ccccc1)CCC2)c1ccc2c(c1)OCO2`: the RP-LC retention time was found to be 834 s.

As to `CCC(C)NC(=O)c1cc2c(s1)CCN(C(=O)c1ccccc1)C2` (stereo unspecified), the RP-LC retention time came to 769 s.

For the molecule `CCOC(=O)Cc1csc(NC(=O)Cc2csc(Nc3nc(C)cc(C)n3)n2)n1`, the RP-LC retention time was 769 s.

Regarding `O=C(NCCC1CCN(C(=O)Nc2ccc(F)cc2)CC1)c1ccco1`, the RP-LC retention time came out at 718 s.

In the case of `OCC(O)C1OCOC(C(O)CO)C1O` (stereo unspecified), the RP-LC retention time is 719 s.

The molecule `Cc1cccc(-n2c(=O)c3c(cc(C)n3C)n(CC(=O)Nc3ccc(C)c(Cl)c3)c2=O)c1` returned an RP-LC retention time of 960 s.

With `CCOCN(C(=O)Cn1c(CC)nc2ccccc21)c1c(C)cccc1CC`, the RP-LC retention time amounted to 780 s.

Consider `CCc1ccc(-c2noc(CN3C(=O)COc4ccc(S(=O)(=O)CC)cc43)n2)cc1`, for which the RP-LC retention time is 1000 s.

`Cc1ccccc1NC(=O)c1cc(C(C)C)n2nccc2n1`: the RP-LC retention time turned out to be 1090 s.

Turning to `CCOC(=O)c1[nH]c(C)c(CCC(=O)NCCN2CCCCCC2)c1C`, the RP-LC retention time is 616 s.

The molecule `COc1cccc(NC(=O)CSc2cc(N3CCN(c4ccccc4OC)CC3)ncn2)c1` returned an RP-LC retention time of 938 s.

The molecule `Cc1ccc(CNC(=O)c2cc3sc(C)c(CN4CCOCC4)c3[nH]2)o1` gave an RP-LC retention time of 656 s.

For the molecule `CCOc1ccc(Cl)cc1S(=O)(=O)N1CCC(C(=O)NCCO)CC1`, the RP-LC retention time worked out at 692 s.

Regarding `CCN1C(=O)c2cccnc2Sc2cc(NC(=O)CCc3ccc(OC)cc3)ccc21`, the RP-LC retention time stood at 855 s.

The molecule `CCOc1cccc(-c2noc(-c3nn(-c4ccc(OC)cc4)ccc3=O)n2)c1` yielded an RP-LC retention time of 938 s.

As to `CCCCC(=O)N1CCN(c2ncccc2-c2nnc(C(C)C)o2)CC1`, the RP-LC retention time was found to be 794 s.

On to `Cn1cc(-c2nc(C(=O)Nc3ccc(F)cc3Cl)cs2)c2cccnc21`, for which the RP-LC retention time turned out to be 1210 s.

Turning to `O=C(COc1ccc(Cl)cc1)N1CCN(c2nc(CN3CCOCC3)cs2)CC1`, the RP-LC retention time is 643 s.

As to `CC(C)c1nccn1C1CN(C(=O)COc2ccccc2)C1`, the RP-LC retention time came to 596 s.

Molecule `CC1CCN(C(=O)CSCc2nc3cccnc3n2C2CCCCC2)CC1` yielded an RP-LC retention time of 960 s.

`O=C(CN1CCN(Cc2ccccc2F)C1=O)NCc1cccc(Cl)c1`: the RP-LC retention time is 831 s.

`CC1CCCN(c2ccc(-c3noc(CN4CCSCC4)n3)cn2)C1` (stereo unspecified): the RP-LC retention time was 856 s.

Molecule `O=C(NCC1CCN(C(=O)Oc2ccccc2)CC1)C(=O)Nc1ccon1` had an RP-LC retention time of 741 s.

`Fc1ccccc1-c1nc2ccccc2[nH]1`: the RP-LC retention time amounted to 592 s.

`COc1ccc(-c2nc(Cn3cnc4nc5c(cc4c3=O)CC(C)CC5)c(C)o2)cc1OC` (stereo unspecified) had an RP-LC retention time of 870 s.

The molecule `Cc1ccc(C2Cn3cnc(C(=O)N4CCC(C(=O)NCCc5ccccc5)CC4)c3CO2)cc1` (stereo unspecified) registered an RP-LC retention time of 826 s.

Turning to `Cc1ccc(C)c(Sc2cc(N3CCC(C(=O)NCCCOC(C)C)CC3)ncn2)c1`, the RP-LC retention time turned out to be 823 s.

Take `Cn1cccc1C(=O)N1CC(Oc2ccc(-c3nc(-c4ccccc4)no3)cc2)C1`: the RP-LC retention time is 1170 s.

Turning to `CCn1c(C(=O)Nc2ccc(C)c(C)c2)cc2sc(Cl)cc21`, the RP-LC retention time turned out to be 1300 s.

`COc1cccc(NC(=O)Nc2c(-c3ccsc3)nc3ccccn23)c1` returned an RP-LC retention time of 639 s.

The molecule `COc1ccc(C(=O)N2CCC3(C2)C(=O)Nc2ccccc23)cc1OC` (stereo unspecified) yielded an RP-LC retention time of 657 s.

In turn, `O=C(NC1CC1)C1CCN(S(=O)(=O)c2cc(C(=O)N3CCCCCC3)cs2)CC1` showed an RP-LC retention time of 713 s.

On to `O=C(Cc1c(Sc2ccccc2)[nH]c2ccccc12)N1CCN(c2ccccn2)CC1`, for which the RP-LC retention time amounted to 679 s.

In the case of `Cc1cc2nc(C(=O)Nc3cccc(C#N)c3)cc(C)n2n1`, the RP-LC retention time came to 901 s.

`CCC(=O)Nc1sc2c(c1C(=O)Nc1ccccc1)CCCC2`: the RP-LC retention time is 704 s.

In turn, `CC1=C(c2ccc(F)cc2)S(=O)(=O)N=C1N1CCC(C(=O)NC2CCCC2)CC1` returned an RP-LC retention time of 798 s.

The molecule `COc1ccc(OC)c(S(=O)(=O)N2C[C@@H](F)C[C@H]2C(=O)N2CCCCC2)c1` registered an RP-LC retention time of 762 s.

The molecule `COc1ccc(NC(=O)Cc2c(C)nn(-c3nc(-c4ccc(Cl)cc4)cs3)c2C)cc1` registered an RP-LC retention time of 1210 s.

For the molecule `Cc1oc(-c2[nH]ncc2C(=O)N2CCCC2)cc1S(=O)(=O)NCc1cc(F)ccc1F`, the RP-LC retention time is 700 s.

Take `COc1ccc(-c2csc(NC(=O)CCn3c(=O)oc4ccccc43)n2)cc1`: the RP-LC retention time amounted to 940 s.

Molecule `O=C(O)CCN1C(=O)C2C3C=CC(C3)C2C1=O` (stereo unspecified) yielded an RP-LC retention time of 570 s.

`Cc1nc(C(=O)OCc2cc(-c3cccs3)on2)cs1` returned an RP-LC retention time of 785 s.

`CC(C)NP(=O)(NC(C)C)OP(=O)(NC(C)C)NC(C)C`: the RP-LC retention time stood at 762 s.

For the molecule `O=S(=O)(c1ccccc1Br)N1CCCC1c1nc(-c2ccc(F)cc2)no1` (stereo unspecified), the RP-LC retention time worked out at 1110 s.
